Laboratory results: patent publication US6380183B1, “Treatment of diseases involving cyst formation” (Scios, Inc., priority 1998, dated 2002)

Assays:
[1] = system: isolated working rat heart; conditions: isolated working rat heart model; cited from earlier work
human ADPKD cells = experiment: Promega Cell titer 96 MTT proliferation assay on human ADPKD cells; type: cell-based
Procedure: In this experiment, the effect of concentrations from […] to 10^−6 M of the known PTBR agonist, Ro5-4864 on the rate of proliferation of human autosomal dominant polycystic kidnay disease (ADPKD) cells was examined.
Epithelial cells from human ADPKD kidneys have been cultured from the domes of cysts and maintained in primary culture through several passages.
The rate of cell proliferation was determined using the Promega Cell titer 96 MTT Assay method. This assay is a modification of that described by Mosmann T 1983 J Immunol Meth. 65, 55. […] The relation between cell number and O.D. was linear, and r^2 was >0.98. To determine the effect of agonists on the rate of proliferation, approximately 4000 cells were seeded into individual chambers of a 96-well plate. The cells were incubated initially in DME/F12 medium supplemented only with penicillin, streptomycin, ITS and 1% FBS. After 24 hours,.the FBS was reduced to 0.002% (ITS deleted) to arrest growth. This small amount of serum was needed to potentiate cell attachment to the plastic surface. The human ADPKD cells were then cultured for 48 hours, after adding the cAMP (a stimulator of cell proliferation) at a concentration of 100 μM. A control and forskolin group were examined as well. Preliminary studies determined that growth was sustained over this entire interval.
Thereafter the effect of a range of concentrations from 10^−12 to 10^−6 M of the known PTBR agonist, Ro5-4864 on the rate of proliferation of […] pretreated with cAMP or not treated (baseline proliferation) was examined. The results are graphically illustrated in FIG. 6. Each data set shown in FIG. 6 is mean, and was obtained from six determinations. Accordingly, the results are highly statistically significant.

human atrial strips = conditions: not antagonized by PK 11195; cited from earlier work
Langendorf rat heart = conditions: cited from earlier work
[2] = system: guinea pig heart preparation; conditions: Ro5-4864 effects reversed by PK 11195; cited from earlier work
polycystic cpk mice = conditions: cited from earlier work

CCC(C)N(C)C(=O)c1cc2ccccc2c(-c2ccccc2Cl)n1 (centres unmarked) [PK 11195, 1-(2-chlorophenyl)-N-methyl-N-(1-methylpropyl)-3-isoquinoline carboxamide]
cardiac function [1]: depress cardiac function

CN1C(=O)CN=C(c2ccc(Cl)cc2)c2cc(Cl)ccc21 [Ro5-4864]
visual observation of the cells: growth arrest versus cell killing (human ADPKD cells; human ADPKD cells): arresting cell growth and not be killing the cells | basal cell proliferation (human ADPKD cells; human ADPKD cells not treated with cAMP (baseline), all concentrations examined, 10^-12 to 10^-6 M, MTT O.D., six determinations): blocked | cAMP stimulated cell proliferation (human ADPKD cells; human ADPKD cells pretreated with 100 μM cAMP, all concentrations examined, 10^-12 to 10^-6 M, MTT O.D., six determinations): blocked | depressant effect on the contraction amplitude (negative inotropic effect) (human atrial strips): 20% | cardiac function [1]: depress cardiac function | heart rate and left ventricular contractility (Langendorf rat heart; isolated perfused Langendorf rat heart): without affecting | coronary flow (Langendorf rat heart; isolated perfused Langendorf rat heart, effect not antagonized by PK 11195): increase coronary flow | duration of intracellular action potential and contractility [2]: decreased

O=C1CN=C(c2ccccc2Cl)c2cc([N+](=O)[O-])ccc2N1 [clonazepam]
duration of intracellular action potential and contractility [2]: ineffective

CN1C(=O)CN=C(c2ccccc2)c2cc(Cl)ccc21 [diazepam]
contractile force (Langendorf rat heart; Langendorf rat heart): increased contractile force | duration of intracellular action potential and contractility [2]: less effective

CC(=O)O[C@H]1C(=O)[C@@]2(C)[C@H]([C@H](OC(=O)c3ccccc3)[C@]3(O)C[C@H](OC(=O)[C@H](O)[C@@H](NC(=O)c4ccccc4)c4ccccc4)C(C)=C1C3(C)C)[C@]1(OC(C)=O)CO[C@@H]1C[C@@H]2O [taxol]
progression of PKD (polycystic cpk mice): inhibit the progression of PKD | survival (polycystic cpk mice): prolongs the survival
